Assay results published in US5028593A, “Tuftsin analogs” (Board of Regents, The University of Texas System, priority 1989, dated 1991).
Residues, ends and D or L forms follow the SMILES beside them.

How the values were obtained:
[1] = tested on: Human polymorphonuclear leukocytes (PMN); assay: Phagocytosis assay; assay type: cell-based; conditions: compared to tuftsin; statistically significant differences at peptide concentrations of 0.1, 1.0 and 10 μg/ml; fluorescent microspheres, 15 min
Procedure: Human polymorphonuclear leukocytes (PMN) are prepared from venous blood of healthy donors. Heparinized blood is mixed with dextran and kept at 37° C. for 1 hour. The leukocyte-rich plasma is collected and centrifuged. The resulting pellet is washed with Hank's balanced salt solution (HBSS). The pellet is then suspended into HBSS, layered over Lymphocyte Separation Medium (LSM) and centrifuged. The sedimented cells are washed with HBSS. Contaminant erythrocytes are lysed by suspending the cells in sterile water for 15 seconds. The isotonicity is then restored by adding 10XHBSS. After centrifuging, the PMN are washed with HBSS, suspended in the same medium, counted, and adjusted to 1×10^6 viable cells/ml (viability>95% by trypan blue dye exclusion). Cells (0.5×10^6 cells/well) are plated in 24 well plate and placed in a 37° C. CO2 incubator for 30 min. to form a monolayer. Thereafter the supernatant is aspirated. Tuftsin or analog in 250 μl HBSS and 1.25×10^7 fluorescent microspheres (2 μm diameter) in 250 μl HBSS, are added to each well resulting in a particle to PMN ratio of 25:1, mixed, and incubated for 15 min. The supernatant is then quickly aspirated and each well washed with HBSS. […] After 10 min, % phagocytosis (% of PMN containing one or more particles) is counted under a microscope. […]

Splenocytes = assay: Thymidine incorporation assay (growth stimulation); assay type: cell-based, C57BL/6 female mouse; conditions: compared to tuftsin; peptide 10 μg/ml; adherent and non-adherent splenocytes; 3H-thymidine
Procedure: Spleen is obtained from C57BL/6 female mouse (approximately 3 months old). Splenocytes are prepared by teasing the spleen and passing them through a sieving screen. These cells in HBSS with 2% FBS are then layered over LSM and centrifuged. The cells at interphase are collected, washed with RPMI-1640 medium with 2% FBS, suspended in the same medium at 1×10^6 cells/ml, and plated into wells (1×10^6 cells per well). The plate is incubated for 45 min. in the incubator. Non-adherent cells in each well are transferred to a new well. Adherent cells and non-adherent cells are incubated in separate wells with peptide (10 μg/ml) for 6 hours in 1 ml RPMI-1640 medium with 2% FBS. ^3 H-thymidine (0.1 μCi per well) is then introduced. The plate is kept in the incubator for another 18 hours. Each well is washed and cells are collected into a tube using 1 ml of cold HBSS. After washing the cells twice, the cells are counted, mixed with 0.2 ml of 0.1% sodium dodecyl sulfate, and transferred to a liquid scintillation vial for determination of radioactivity.

K-562 tumor target cells = assay: Tumor cell cytotoxicity assay by human natural killer (NK) cells (51Cr release); assay type: cell-based; conditions: compared to tuftsin; NK cells activated 1 hour with 10 μg peptide per ml; 4 hour 51Cr release, K-562 targets
Procedure: A leukocyte-rich buffy coat preparation obtained from leukophoresis of a normal volunteer is used. Buffy coat is diluted with HBSS, layered over LSM, and centrifuged. The mononuclear cells at interphase are collected, washed with HBSS, suspended in RPMI-1640 medium with 10% FBS, adjusted to 5×10^6 /l ml, plated on Petri dishes (10 ml each), and incubated for 1 hour. Non-adherent cells are collected, poured into bottles containing nylon wool wet with HBSS, and kept in the incubator for 1 hour. Non-adherent cells are collected, suspended in RPMI-1640 medium with 10% FBS, adjusted to 2×10^7 /ml, mixed (1:1 volume ratio) with sheep red blood cells (6×10^8 /ml), placed in 29° C. bath for 15 min., centrifuged, and again placed in 29° C. bath for another hour. Cell clumps are gently broken up, layered over LSM, and centrifuged. […]
The viability of this NK cell enriched fraction is assessed with trypan blue, and washed with RPMI-1640 medium with 5% FBS. […] Filters containing radioactive supernatants are counted on a γ counter and counts per minutes (cpm) are recorded. Percent cytotoxicity (% specific lysis) is calculated by the following formula: [formula] […] Maximum cpm is obtained by releasing the radioactivity from the target cells by treatment with Triton X-100.

## CC(C)C[C@H](NC(=O)[C@H](CCCCN)NC(=O)[C@@H](N)[C@@H](C)O)C(=O)N[C@@H](CCCCN)C(=O)O [tuftsin analog, L-Thr-L-Lys-L-Leu-L-Lys] (H-TKLK-OH)
[1]
  stimulation of phagocytosis (% phagocytosis): significantly greater stimulation of phagocytosis at lower concentrations compared to tuftsin itself
Splenocytes
  stimulating thymidine incorporation (growth stimulation): significantly greater activity in stimulating thymidine incorporation (growth stimulation) than did tuftsin
K-562 tumor target cells
  tumor cell cytotoxicity enhancement of human NK cells: significantly greater tumor cell cytotoxicity enhancement of human NK cells
